Experimental data from paper PMC8453848, “Effect of GLPG1205, a GPR84 Modulator, on CYP2C9, CYP2C19, and CYP1A2 Enzymes: In Vitro and Phase 1 Studies” (Clinical Pharmacology in Drug Development, 2021).
Like-named read-outs stand apart in the source and are kept apart here.

Assays:
[1] = Phase 1 drug-drug interaction study: plasma PK of GLPG1205; assay type: in vivo, human; conditions: for AUC: 100 mg
Procedure: The protein precipitated mixture was centrifuged at approximately 14 000 g for 15 minutes at room temperature. The clear supernatant was diluted with dilution solvent (water with 0.05% of trifluoroacetic acid) and then transferred into LC-MS plates. […] Chromatographic separation was performed on a Kinetex C18 column (50 x 3.0 mm, 2.6 µm from Phenomenex, Torrance, CA, USA) set at 40°C by using a Nexera high performance liquid chromatography (HPLC) system (Shimadzu, Kyoto, Japan) in isocratic elution mode.

CYP1A2 [2] = assay: in vitro; conditions: human
Procedure: GLPG1205 was incubated with monolayer cultures of fresh human hepatocytes from 3 individual donors for 24 hours (messenger ribonucleic acid [mRNA] analysis) or 48 hours (enzyme activity) at 6 different concentrations: 0.5, 1, 5, 10, 50, and 100 μM (0.19, 0.38, 1.89, 3.78, 18.9, and 37.8 μg/mL, respectively). All incubations contained 0.4% dimethylsulfoxide (DMSO). Incubation with 50 μM omeprazole containing 0.1% DMSO was used as a positive control. Incubations with 0.1% and 0.4% DMSO alone were used as negative controls.
Following a 48‐hour incubation period, an enzymatic assay assessed phenacetin O‐deethylase (a CYP1A2 substrate) activity by measuring the CYP1A2‐dependent metabolite acetaminophen in supernatants. Acetaminophen was quantified using liquid chromatography coupled with tandem mass spectrometry (LC‐MS/MS).
A concentration‐dependent increase in mRNA of <100% was considered a negative finding when the increase in mRNA was less than 20% of the response of the positive control.
Incubation for CYP1A2 Induction Experiment The incubations for enzyme activity measurements were performed with cell monolayers in 96-well plates and the incubations for mRNA measurements were performed with cell monolayers in 24-well plates.^3
GLPG1205 was incubated with monolayer culture of human fresh hepatocytes from 3 individual donors for 24 or 48 hours, for messenger ribonucleic acid (mRNA) analysis and enzyme activity, respectively, at 6 different concentrations (n = 3): 0.1, 0.5, 1, 5, 10 and 50 µM (0.038, 0.19, 0.38, 1.89, 3.78 and 18.9 µg/mL, respectively). […] Incubation with 50 µM omeprazole containing 0.1% DMSO was used as a positive control. Incubations with 0.1% and 0.4% DMSO alone were used as negative controls. The CMI was William’s E medium with hepatocytes induction additives. Cells were cultured at 37°C in a humidified carbon dioxide/air (5%/95%) atmosphere. Culture media were renewed daily in all wells.
Enzymatic Assay At the end of the 48-hour incubation period, CYP1A2 enzyme activity was measured in intact cells by incubating with phenacetin, a probe substrate. Cells were first washed with minimum essential medium (MEM) devoid of phenol red to remove remaining test compounds or reference inducers and were then incubated for 2 hours at 37°C with 200 µM phenacetin in MEM devoid of phenol red and containing 0.1% DMSO. Assessment of phenacetin O-deethylase activity in supernatants was carried out by measuring the CYP1A2-dependent metabolite acetaminophen. Cell protein content was also determined; protein content was measured according to the bicinchoninic acid method^4 and calculated using a bovine serum albumin standard curve.
A 2-fold dilution of the specimens in a solution of 1 µM D4-acetaminophen in water with 0.1% formic acid was performed and 20 µL were injected into the LC-MS/MS system. The mobile phase consisted of ammonium acetate 5 mM in water (A) and formic acid 0.3% in acetonitrile/methanol, 50/50, v/v. The following gradient was applied with a 1.5 mL/min flow rate and an oven temperature of 40°C: 98% A from 0 minutes; 70% A from 2.5 minutes; 1% A from 2.6 minutes; 1% A from 3.2 minutes; 98% A from 3.25 minutes; 98% A from 4.5 minutes. In this condition, the retention time of acetaminophen was approximately 2.33 minutes. Controls were performed by injecting calibration standards at the beginning and end of each run. […]

CYP1A2 [3] = molecular target: T1, CYP1A2 (Homo sapiens, UniProt P05177); assay: CYP1A2 inhibition, phenacetin O-deethylase assay in human liver microsomes; assay type: in vitro ADME; parameters: from tissue; host or cells: in vivo, 14 healthy male subjects; conditions: for IC50: estimated
T1 sequence (P05177 1-516): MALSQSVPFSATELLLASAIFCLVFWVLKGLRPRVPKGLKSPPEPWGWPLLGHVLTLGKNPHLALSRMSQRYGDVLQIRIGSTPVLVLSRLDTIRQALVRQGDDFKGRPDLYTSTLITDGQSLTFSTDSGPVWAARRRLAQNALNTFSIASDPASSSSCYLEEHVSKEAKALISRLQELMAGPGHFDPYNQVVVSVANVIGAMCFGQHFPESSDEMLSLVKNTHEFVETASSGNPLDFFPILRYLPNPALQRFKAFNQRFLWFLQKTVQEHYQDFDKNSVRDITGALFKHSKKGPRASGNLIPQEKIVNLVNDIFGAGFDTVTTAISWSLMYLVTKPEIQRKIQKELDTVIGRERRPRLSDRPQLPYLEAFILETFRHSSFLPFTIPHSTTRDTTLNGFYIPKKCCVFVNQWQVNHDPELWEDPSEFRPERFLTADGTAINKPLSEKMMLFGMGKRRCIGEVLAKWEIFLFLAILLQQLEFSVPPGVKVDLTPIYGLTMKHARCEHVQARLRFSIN
Procedure: Inhibition of the biotransformation of CYP‐specific substrates by GLPG1205 was studied using human liver microsomes. Incubation was performed at 37°C with the following conditions: n = 3 for all assays; 0.1 M phosphate buffer (pH 7.4), the cofactor nicotinamide adenine dinucleotide phosphate (NADPH) incubated at 2 mM, the CYP‐specific substrate incubated at 1 nonsaturating concentration, and GLPG1205. Additional incubation was performed with (1) a 30‐minute preincubation step of GLPG1205 with microsomes before the addition of the cofactor NADPH and CYP substrate; and (2) a 30‐minute preincubation step of GLPG1205 with microsomes and the cofactor NADPH, before the addition of the CYP substrate. GLPG1205 was tested at 6 concentrations: 0.5, 1, 5, 10, 50, and 100 μM (0.19, 0.38, 1.89, 3.78, 18.9, and 37.8 μg/mL, respectively), for each condition. The CYP‐specific substrates were incubated per the above conditions at the following concentrations: tolbutamide, 200 μM, CYP2C9 substrate; S‐mephenytoin, 60 μM, CYP2C19 substrate; phenacetin, 40 μM, CYP1A2 substrate.
Metabolites of the CYP‐specific substrates (acetaminophen for CYP1A2, hydroxytolbutamide for CYP2C9, hydroxymephenytoin for CYP2C19) were quantified using LC‐MS/MS.
Enzymatic activity in the presence of GLPG1205 was expressed as a percentage of the control activity obtained with the vehicle only (ie, without GLPG1205 or reference inhibitor). Decreases in activity of less than 20% were not considered clinically relevant.
Protocol for CYP Inhibition of the biotransformation of CYP-specific substrates by GLPG1205 was studied using human liver microsomes.^7 Incubations were performed at 37°C with the following conditions: n = 3 for all assays; 0.1 M phosphate buffer pH 7.4; the cofactor β-nicotinamide adenine dinucleotide phosphate (NADPH) incubated at 2 mM; the CYP-specific substrate incubated at one non-saturating concentration; and GLPG1205. Additional incubations were performed with: 1) a 30-minute preincubation step of GLPG1205 with microsomes before addition of the cofactor NADPH and CYP substrate; and 2) a 30-minute preincubation step of GLPG1205 with microsomes and the cofactor NADPH, before addition of the CYP substrate.
GLPG1205 was tested at 6 concentrations: 0.5, 1, 5, 10, 50 and 100 µM (0.19, 0.38, 1.89, 3.78, 18.9, 37.8 µg/mL, respectively).
The CYP-specific substrates were incubated at the following conditions: tolbutamide (200 µM; CYP2C9); S-mephenytoin (60 µM; CYP2C19); phenacetin (40 µM; CYP1A2).^8-10 Reference inhibitors (as detailed in the previous section) were incubated in parallel. For all assays, the following controls were incubated in parallel: 1) with CYP substrate, without microsomes, with NADPH, without inhibitor (to check for substrate stability); 2) with CYP substrate, with microsomes, without NADPH, without inhibitor (to check for non-NADPH-dependent metabolism of substrate); and 3) without substrate, with microsomes, with NADPH, with test compound or reference inhibitor (to check for potential analytical interference).
At the end of the incubation period, the reaction was stopped with the addition of 0.15 M phosphoric acid (300 µL); proteins were allowed to precipitate for a minimum of 1 hour at approximately 4°C. After centrifugation at 3200 g for 20 minutes at approximately + 4°C, supernatants were collected.

[4] = Phenacetin O-deethylase activity, fold induction

In the case of `O=c1nc(OC[C@@H]2COCCO2)cc2n1CCc1cc(C#CC3CC3)ccc1-2` [GLPG1205, 9‐cyclopropylethynyl‐2‐[(S)‐1‐(1,4)dioxan‐2‐ylmethoxy]‐6,7‐dihydropyrimido[6,1‐a]isoquinolin‐4‐one], the “day by which steady state was reached” value ([1]; GLPG1205 100 mg once a day, trough plasma concentrations) is reported as ≤ 9 days, the AUC ([1]; male, human, plasma, oral, day 13, GLPG1205 100 mg once a day, n = 5, arithmetic mean (CV%), read-out: AUC0‐inf) is reported as 373 µg·h/mL and the AUC ([1]; male, human, plasma, oral, day 13, GLPG1205 100 mg once a day, n = 14, arithmetic mean (CV%), read-out: AUC0‐t) is reported as 395 µg·h/mL. For the same compound, the Cmax ([1]; male, human, plasma, oral, day 13, GLPG1205 100 mg once a day, n = 14, arithmetic mean (CV%)) was 5010 ng/mL, the half-life ([1]; male, human, plasma, oral, day 13, GLPG1205 100 mg once a day, n = 14, arithmetic mean (CV%), read-out: t1/2, λz (converted)) was 74.1 h and the tmax ([1]; male, human, plasma, oral, day 13, GLPG1205 100 mg once a day, n = 14, median (min‐max)) was 2 h. For the same compound, the “Phenacetin O-deethylase activity, fold induction” value (CYP1A2 [2]; 48 h, 50 µM) was 0.367 ± 0.021 fold, the fold induction at 48 h, 0.1 µM (CYP1A2 [2]; [4]) was 1.64 ± 0.256 and the fold induction at 48 h, 50 µM (CYP1A2 [2]; [4]) was 0.335 ± 0.033. The “increases in CYP1A2 activity compared with the negative control (0.4% DMSO)” value (CYP1A2 [2]; hepatocytes, 48 h) was ≤ 2 fold, the “increases in CYP1A2 activity, % of the positive control (omeprazole)” value (CYP1A2 [2]; hepatocytes, 48 h) was “lower than 40%” and the “inhibition of CYP1A2 in words” value (CYP1A2 [3]; GLPG1205 50‐100 μM) was “Weak”. The IC50 (CYP1A2 [3]; human liver microsomes, read-out: IC50 for inhibition of CYP1A2) was ≥ 100 µM, the IC50 (CYP1A2 [3]; equivalent of ≥100 μM, read-out: IC50 for inhibition of CYP1A2, equivalent) was ≥ 99.9 µM and the inhibition at 7 min, 100 µM (CYP1A2 [3]; human, liver microsomes, pH 7.4, probe phenacetin 40 µM, GLPG1205 100 μM following a 30‐minute preincubation with NADPH) was 52.9%. For the same compound, the inhibition at 7 min (CYP1A2 [3]; human, liver microsomes, pH 7.4, probe phenacetin 40 µM, GLPG1205 50‐100 μM, phenacetin 40 μM) was 20.4 to 38%.
